Results: article PMC6255212, “Coupled molecular dynamics mediate long- and short-range epistasis between mutations that affect stability and aggregation kinetics” (Proceedings of the National Academy of Sciences of the …, 2018)

Molecular target: T1, Escherichia coli transketolase (TK) (Escherichia coli, UniProt P27302)
T1 construct: gene tktA; homodimer of 70- to 74-kDa monomers; holo enzyme with ThDP and Mg2+
Experiment: steady-state enzyme kinetics
Assay type: biochemical
Details: 50 mM Li-HPA (lithium beta-hydroxypyruvate, saturating), 4-80 mM glycolaldehyde

T1 sequence (P27302 2-663): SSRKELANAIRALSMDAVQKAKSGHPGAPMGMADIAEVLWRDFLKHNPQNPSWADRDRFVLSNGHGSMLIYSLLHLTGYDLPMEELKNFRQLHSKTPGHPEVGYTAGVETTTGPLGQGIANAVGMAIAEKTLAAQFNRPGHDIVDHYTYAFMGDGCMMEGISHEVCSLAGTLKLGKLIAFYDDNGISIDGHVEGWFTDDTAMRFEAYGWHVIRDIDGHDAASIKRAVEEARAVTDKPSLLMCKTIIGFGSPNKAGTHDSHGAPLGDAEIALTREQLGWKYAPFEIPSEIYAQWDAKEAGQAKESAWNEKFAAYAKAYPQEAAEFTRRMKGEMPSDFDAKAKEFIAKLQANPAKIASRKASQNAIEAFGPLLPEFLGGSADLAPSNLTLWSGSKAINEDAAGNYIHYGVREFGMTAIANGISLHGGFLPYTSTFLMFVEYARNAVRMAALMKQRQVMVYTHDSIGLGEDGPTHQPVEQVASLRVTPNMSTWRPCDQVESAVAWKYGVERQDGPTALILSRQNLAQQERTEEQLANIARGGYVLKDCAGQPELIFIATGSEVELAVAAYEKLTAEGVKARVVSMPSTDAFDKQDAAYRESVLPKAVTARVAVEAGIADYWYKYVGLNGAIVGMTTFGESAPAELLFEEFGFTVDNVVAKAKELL

O=CCO [glycolaldehyde] gave a Km of 20.3 mM.
